Measured values reported in patent US9868736B2, “Deubiquitinase inhibitors and methods for use of the same” (THE REGENTS OF THE UNIVERSITY OF MICHIGAN, priority 2013, dated 2018).
≈ marks a conversion by molar mass, not a printed value. Entries after “also recorded” stand apart in the source; their conditions may differ.

How the values were obtained:
[1] = system: Sindbis virus, Tulane virus, LaCrosse virus, Norwalk virus replicon; experiment: antiviral screen against a variety of viruses; format: cell-based; conditions: Vero (Sindbis), LLC-MK (Tulane), Be2-c (LaCrosse), Norwalk virus replicon-containing cells, FIG. 9
[2] = plasma level in mice after IV, PO or IP administration (LC/MS); format: in vivo, Balb/c mice; conditions: for concentration at 0.5 h / concentration at 2 h / concentration at 4 h / concentration at 7 h / AUC(0-t) / half-life: Balb/c, mouse, plasma
Experimental: To determine whether G9 or 067 had anti-tumor activity in animals, we first assessed their properties in mice when introduced intravenously (IV) or by oral gavage (PO). G9 or 067 was administered once to two mice per group at the indicated dosage level and route (IV or PO) and plasma was collected at the time point indicated after administration. Compound concentration in the plasma was measured by high performance liquid chromatography coupled with mass spectroscopy detection (LC/MS).
Balb/c mice were treated with either 067 or G9 dissolved in dimethyl sulfoxide: polyethylene glycol 300 (1:1) and administered as indicated. The level of each compound in the plasma of each mouse at the time point indicated is shown in the line graph. The area under the curve (AUC) was calculated and tabulated below each line graph. […] The level of each compound in the plasma of each mouse at the time point indicated is shown Table 2. Several pharmacokinetic parameters were also calculated. […] The half-life of G9 was similar to 067 when administered by IP injection (30-60 min). Based on these assessments, G9 was further evaluated for anti-tumor activity in mice.

[3] = system: A375 tumors; experiment: A375 melanoma tumor growth in NSG mice; format: in vivo
Experimental: G9 suppresses Usp9x activity in A375 melanoma cells. The effect of G9 on the growth of A375 tumors in NSG mice was examined. Two million A375 cells in Matrigel: cell culture media (1:1) in 0.1 mL were injected subcutaneously in the dorsal region of 9 female NSG mice. After tumor growth to a measurable level (2 weeks post inoculation) animals were separated into 3 groups and mice received 0, 7.5 or 15 mg/kg G9 (prepared as described above) daily by IP injection for 8 days. Tumor volume (left) and animal weight (right) were measured every other day throughout the treatment interval and are reported in FIG. 6. […] Three animals per treatment group were evaluated in this study. Each data point represents the average+/−S.D. of measurements made in three mice. P-values were calculated using GraphPad Instat. P-values<0.05 are considered significant.
A375 tumors grown as subcutaneous implants in NSG mice were separated into three groups and received once daily ip injections with vehicle control (PEG300/DMSO) or G9 at doses of 7.5 or 15 mg/kg. Tumor growth, animal weight, behavior and mobility were monitored during treatment.

[4] = biological target: T1, Usp5 (Homo sapiens, UniProt P45974); experiment: DUB activity (HA-Ub labelling) in treated cells; format: cell-based
T1 construct: endogenous in cells; host or cells: A375 and A375R melanoma cells (also SK-Mel28)
T1 sequence (P45974 1-858): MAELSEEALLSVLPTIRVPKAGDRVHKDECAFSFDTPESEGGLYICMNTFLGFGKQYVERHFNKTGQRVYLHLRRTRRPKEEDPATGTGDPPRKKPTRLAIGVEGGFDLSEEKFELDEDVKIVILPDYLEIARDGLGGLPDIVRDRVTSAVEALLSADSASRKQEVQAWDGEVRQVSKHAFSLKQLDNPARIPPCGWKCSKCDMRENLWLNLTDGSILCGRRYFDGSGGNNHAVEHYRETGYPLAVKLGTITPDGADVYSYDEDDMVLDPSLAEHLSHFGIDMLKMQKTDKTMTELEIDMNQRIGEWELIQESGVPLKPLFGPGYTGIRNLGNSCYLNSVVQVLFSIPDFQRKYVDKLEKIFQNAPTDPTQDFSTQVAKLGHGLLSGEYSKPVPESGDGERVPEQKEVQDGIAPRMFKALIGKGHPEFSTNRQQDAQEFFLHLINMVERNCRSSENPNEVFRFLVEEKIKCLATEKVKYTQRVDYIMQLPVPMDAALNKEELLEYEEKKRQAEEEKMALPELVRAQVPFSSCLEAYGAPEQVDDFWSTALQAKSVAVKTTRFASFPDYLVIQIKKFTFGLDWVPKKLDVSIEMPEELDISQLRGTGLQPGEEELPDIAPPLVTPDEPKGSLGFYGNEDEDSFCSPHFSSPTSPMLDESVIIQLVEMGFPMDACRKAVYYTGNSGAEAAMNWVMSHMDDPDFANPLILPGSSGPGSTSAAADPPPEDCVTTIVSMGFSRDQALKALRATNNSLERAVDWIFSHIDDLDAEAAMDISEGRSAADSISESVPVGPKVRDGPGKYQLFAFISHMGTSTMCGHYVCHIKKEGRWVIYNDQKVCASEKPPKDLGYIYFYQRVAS
Experimental: DUB activity was assessed by HA blotting and confirmed by monitoring a DUBs mobility shift due to its covalent modification with HA-Ub. DUB inhibition was detected in vemurafenib-responsive (SK-Mel28 and A375) cells and we noted a consistent change in a DUB (100 kDa) identified as Usp5 by LC/MS/MS of the excised protein band (data not shown) and direct immunoblotting. […] DUB activity was also compared in control and BRAF knockdown (KD) cells. BRAF shRNA reduced pERK levels and Usp5 activity.
Similar results were obtained in A375R Usp5 KD cells treated with a MEK inhibitor.

[5] = aqueous solubility; format: physicochemical
[6] = intravenous, 10 mg/kg, IV1 10 mg/kg
[7] = intravenous, 10 mg/kg, IV2 10 mg/kg
[8] = 7.5 or 15 mg/kg daily IP for 8 days

CCCC(NC(=O)/C(C#N)=C/c1nc(Cl)ccc1Cl)c1ccc(OCCN2CCOCC2)cc1 (stereo not drawn) [Compound G9, (E)-2-Cyano-3-(3,6-dichloropyridin-2-yl)-N-(1-(4-(2-morpholinoethoxy)phenyl)butyl)acrylamide]
antiviral activity against a variety of viruses [1]: mild to high antiviral activity; also recorded: antiviral activity against Sindbis virus and La Crosse virus
concentration at 0.5 h [2, 6]: 1880 ng/mL
concentration at 2 h [2, 6]: 395 ng/mL
concentration at 4 h [2, 6]: 126 ng/mL
concentration at 7 h [2, 6]: 38.6 ng/mL
concentration at 0.5 h [2, 7]: 1220 ng/mL
concentration at 2 h [2, 7]: 520 ng/mL
concentration at 4 h [2, 7]: 289 ng/mL
concentration at 7 h [2, 7]: 208 ng/mL
AUC(0-t) ([2]; iv, 10 mg/kg, IV1 10 mg/kg): 3730 ng·h/mL
AUC(0-t) ([2]; iv, 10 mg/kg, IV2 10 mg/kg): 3570 ng·h/mL
concentration at 0.5 h ([2]; oral, 30 mg/kg, PO1 30 mg/kg): 60.8 ng/mL
concentration at 2 h ([2]; oral, 30 mg/kg, PO1 30 mg/kg): 35.8 ng/mL
concentration at 4 h ([2]; oral, 30 mg/kg, PO1 30 mg/kg): 44.5 ng/mL
concentration at 7 h ([2]; oral, 30 mg/kg, PO1 30 mg/kg): 37.6 ng/mL
concentration at 0.5 h ([2]; oral, 30 mg/kg, PO2 30 mg/kg): 78.7 ng/mL
concentration at 2 h ([2]; oral, 30 mg/kg, PO2 30 mg/kg): 59 ng/mL
concentration at 4 h ([2]; oral, 30 mg/kg, PO2 30 mg/kg): 57.1 ng/mL
concentration at 7 h ([2]; oral, 30 mg/kg, PO2 30 mg/kg): 16.1 ng/mL
AUC(0-t) ([2]; po, 30 mg/kg, PO1 30 mg/kg): 291 ng·h/mL
AUC(0-t) ([2]; po, 30 mg/kg, PO2 30 mg/kg): 349 ng·h/mL
half-life ([2]; mice, IP injection): 0.5 to 1 h
half-life ([2]; mice, IV or PO study of Table 2): 1.5 to 2 h
bio-availability following IV administration ([2]; mice, IV): bio-available following IV administration
peak plasma levels, G9 compared with 067 ([2]; mice, IV): higher peak levels
oral bio-availability ([2]; mice, PO): poor oral bio-availability
side effects: behavior and mobility ([3]; 7.5 or 15 mg/kg daily IP): did not observe changes in behavior or mobility; also recorded: did not have any notable side effects
A375 tumor growth [3, 8]: suppressed A375 tumor growth; also recorded: completely suppressed tumor growth; also recorded: reduced tumor growth
animal weight [3, 8]: modest impact on animal weight; also recorded: not significantly different
Usp5 inhibition ([4]; myeloma (MM1.S) cells, various concentrations, FIG. 10): inhibits Usp9x and Usp5
Usp5 activity ([4]; vemurafenib sensitive and resistant A375 cells): reduced Usp5 (and Usp9x) activity in both cell types
solubility compared with earlier inhibitor [5]: improved solubility
solubility ([5]; aqueous medium (not specified further)): 19.8 µM (≈ 9.97 µg/mL)
